Test system: bacteria
Experiment: antimicrobial activity of nisin preparations placed on a skin or agar surface
Assay type: cell-based
Source text: Most important in this embodiment is the principle that nisin must be placed in the external aqueous phase of this preparation. […] In an ointment preparation, it is retained by the lipid phase and fails to dissipate and kill bacteria.

In the case of Nisin, the antimicrobial activity (nisin in an ointment preparation with little or no water) is reported as “largely inactive” and the antimicrobial activity (nisin in the external aqueous phase of an oil in water emulsion, placed on a skin or agar surface) is reported as “highly active”.
